Data: ChEMBL document CHEMBL3885881, “DrugMatrix”

Species: Rattus norvegicus
Experiment: DrugMatrix - Regimen: Daily Repeat
Type: toxicity, organism-based, Sprague-Dawley
Parameters: regimen Daily Repeat, gender Male, age 6-8 weeks
Details: in vivo, iv, vehicle 100 % SALINE; for ABSOLUTE BASOPHIL / ABSOLUTE EOSINOPHIL / ABSOLUTE LYMPHOCYTE / ABSOLUTE MONOCYTE / ABSOLUTE SEGMENTED NEUTROPHIL / BASOPHIL / EOSINOPHIL / ERYTHROCYTE COUNT / HEMATOCRIT / HEMOGLOBIN / LEUKOCYTE COUNT / LYMPHOCYTE / MEAN CORPUSCULAR HEMOGLOBIN / MEAN CORPUSCULAR HEMOGLOBIN CONCENTRATION / MEAN CORPUSCULAR VOLUME / MONOCYTE / NEUTROPHIL / NUCLEATED RED BLOOD CELLS / PLATELET COUNT: tissue Blood; for ALANINE AMINOTRANSFERASE / ALBUMIN / ALKALINE PHOSPHATASE / ASPARTATE AMINOTRANSFERASE / BLOOD UREA NITROGEN / CARBON DIOXIDE / CHLORIDE / CHOLESTEROL / CREATINE PHOSPHOKINASE / CREATININE / GLUCOSE / LACTATE DEHYDROGENASE / LIPASE / PHOSPHORUS / POTASSIUM / SODIUM / TOTAL BILIRUBIN / TOTAL PROTEIN / URIC ACID: tissue Plasma
[1] = 120 mg/kg, 72 h, dose level High, time 3 day
[2] = 120 mg/kg, 120 h, dose level High, time 5 day
[3] = […], 72 h, dose 8.2 mg/Kg, dose level Low, time 3 day
[4] = […], 120 h, dose 8.2 mg/Kg, dose level Low, time 5 day

`[H]/N=C(/N)N[C@H]1[C@H](O)[C@@H](O)[C@H](O[C@@H]2O[C@@H](C)[C@](O)(C=O)[C@H]2O[C@@H]2O[C@@H](CO)[C@H](O)[C@@H](O)[C@@H]2NC)[C@@H](N/C(N)=N\[H])[C@@H]1O` [STREPTOMYCIN] was tested, and the “ABSOLUTE BASOPHIL” value [1] was 0 CELLS/uL, the “ABSOLUTE EOSINOPHIL” value [1] was 272.33 CELLS/uL and the “ABSOLUTE LYMPHOCYTE” value [1] was 11274.33 CELLS/uL. The “ABSOLUTE MONOCYTE” value [1] was 397 CELLS/uL, the “ABSOLUTE SEGMENTED NEUTROPHIL” value [1] was 1289.67 CELLS/uL and the BASOPHIL [1] was 0%. For the same compound, the EOSINOPHIL [1] was 2%, the “ERYTHROCYTE COUNT” value [1] was 5.88 x10E6/uL and the HEMATOCRIT [1] was 36.13%. For the same compound, the HEMOGLOBIN [1] was 13.67 G/DL, the “LEUKOCYTE COUNT” value [1] was 13.23 x10E3/uL and the LYMPHOCYTE [1] was 85.33%. For the same compound, the “MEAN CORPUSCULAR HEMOGLOBIN” value [1] was 23.3 pg, the “MEAN CORPUSCULAR HEMOGLOBIN CONCENTRATION” value [1] was 37.8 G/DL and the “MEAN CORPUSCULAR VOLUME” value [1] was 61.53 fL. For the same compound, the MONOCYTE [1] was 3%, the NEUTROPHIL [1] was 9.67% and the “NUCLEATED RED BLOOD CELLS” value [1] was 0.33 /100WBC. The “PLATELET COUNT” value [1] was 1314 x10E3/uL, the “ALANINE AMINOTRANSFERASE” value [1] was 43 u/L and the ALBUMIN [1] was 4.27 G/DL. The “ALKALINE PHOSPHATASE” value [1] was 316.67 u/L, the “ASPARTATE AMINOTRANSFERASE” value [1] was 75.67 u/L and the “BLOOD UREA NITROGEN” value [1] was 18.33 mg/dL. For the same compound, the “CARBON DIOXIDE” value [1] was 24.67 mmol/L, the CHLORIDE [1] was 106 MEQ/L and the CHOLESTEROL [1] was 86 mg/dL. The “CREATINE PHOSPHOKINASE” value [1] was 233.67 u/L, the CREATININE [1] was 0.28 mg/dL and the GLUCOSE [1] was 150.33 mg/dL. For the same compound, the “LACTATE DEHYDROGENASE” value [1] was 355.67 u/L, the LIPASE [1] was 9 u/L and the PHOSPHORUS [1] was 12.8 mg/dL. The POTASSIUM [1] was 6.3 MEQ/L, the SODIUM [1] was 147.3 MEQ/L and the “TOTAL BILIRUBIN” value [1] was 0.23 mg/dL. The “TOTAL PROTEIN” value [1] was 6.03 G/DL, the “URIC ACID” value [1] was 1.3 mg/dL and the “ABSOLUTE BASOPHIL” value [2] was 0 CELLS/uL. The “ABSOLUTE EOSINOPHIL” value [2] was 0 CELLS/uL, the “ABSOLUTE LYMPHOCYTE” value [2] was 15247.67 CELLS/uL and the “ABSOLUTE MONOCYTE” value [2] was 224.67 CELLS/uL. For the same compound, the “ABSOLUTE SEGMENTED NEUTROPHIL” value [2] was 2294.33 CELLS/uL, the BASOPHIL [2] was 0% and the EOSINOPHIL [2] was 0%. For the same compound, the “ERYTHROCYTE COUNT” value [2] was 5.9 x10E6/uL, the HEMATOCRIT [2] was 36.63% and the HEMOGLOBIN [2] was 13.87 G/DL. The “LEUKOCYTE COUNT” value [2] was 17.77 x10E3/uL, the LYMPHOCYTE [2] was 85.33% and the “MEAN CORPUSCULAR HEMOGLOBIN” value [2] was 23.5 pg. The “MEAN CORPUSCULAR HEMOGLOBIN CONCENTRATION” value [2] was 37.83 G/DL, the “MEAN CORPUSCULAR VOLUME” value [2] was 62.1 fL and the MONOCYTE [2] was 1.33%. For the same compound, the NEUTROPHIL [2] was 13.33%, the “NUCLEATED RED BLOOD CELLS” value [2] was 0 /100WBC and the “PLATELET COUNT” value [2] was 1316.67 x10E3/uL. The “ALANINE AMINOTRANSFERASE” value [2] was 42.33 u/L, the ALBUMIN [2] was 4.33 G/DL and the “ALKALINE PHOSPHATASE” value [2] was 270 u/L. For the same compound, the “ASPARTATE AMINOTRANSFERASE” value [2] was 91 u/L, the “BLOOD UREA NITROGEN” value [2] was 18.67 mg/dL and the “CARBON DIOXIDE” value [2] was 25 mmol/L. The CHLORIDE [2] was 104 MEQ/L, the CHOLESTEROL [2] was 61 mg/dL and the “CREATINE PHOSPHOKINASE” value [2] was 601.67 u/L. For the same compound, the CREATININE [2] was 0.19 mg/dL, the GLUCOSE [2] was 177.67 mg/dL and the “LACTATE DEHYDROGENASE” value [2] was 433 u/L. It also gave an LIPASE [2] of 8.67 u/L, a PHOSPHORUS [2] of 14 mg/dL and a POTASSIUM [2] of 6.21 MEQ/L. The SODIUM [2] was 147.03 MEQ/L, the “TOTAL BILIRUBIN” value [2] was 0.13 mg/dL and the “TOTAL PROTEIN” value [2] was 6.3 G/DL. The “URIC ACID” value [2] was 1.83 mg/dL, the “ABSOLUTE BASOPHIL” value [3] was 0 CELLS/uL and the “ABSOLUTE EOSINOPHIL” value [3] was 0 CELLS/uL. The “ABSOLUTE LYMPHOCYTE” value [3] was 16010 CELLS/uL, the “ABSOLUTE MONOCYTE” value [3] was 231.33 CELLS/uL and the “ABSOLUTE SEGMENTED NEUTROPHIL” value [3] was 1025.33 CELLS/uL. The BASOPHIL [3] was 0%, the EOSINOPHIL [3] was 0% and the “ERYTHROCYTE COUNT” value [3] was 6.28 x10E6/uL. The HEMATOCRIT [3] was 40.03%, the HEMOGLOBIN [3] was 14.6 G/DL and the “LEUKOCYTE COUNT” value [3] was 17.27 x10E3/uL. The LYMPHOCYTE [3] was 92.67%, the “MEAN CORPUSCULAR HEMOGLOBIN” value [3] was 23.33 pg and the “MEAN CORPUSCULAR HEMOGLOBIN CONCENTRATION” value [3] was 36.47 G/DL. The “MEAN CORPUSCULAR VOLUME” value [3] was 63.9 fL, the MONOCYTE [3] was 1.33% and the NEUTROPHIL [3] was 6%. For the same compound, the “NUCLEATED RED BLOOD CELLS” value [3] was 0 /100WBC, the “PLATELET COUNT” value [3] was 1313.67 x10E3/uL and the “ALANINE AMINOTRANSFERASE” value [3] was 51.67 u/L. The ALBUMIN [3] was 4.5 G/DL, the “ALKALINE PHOSPHATASE” value [3] was 417.33 u/L and the “ASPARTATE AMINOTRANSFERASE” value [3] was 82.67 u/L. For the same compound, the “BLOOD UREA NITROGEN” value [3] was 13.67 mg/dL, the “CARBON DIOXIDE” value [3] was 23 mmol/L and the CHLORIDE [3] was 105.33 MEQ/L. For the same compound, the CHOLESTEROL [3] was 84 mg/dL, the “CREATINE PHOSPHOKINASE” value [3] was 198.33 u/L and the CREATININE [3] was 0.22 mg/dL. For the same compound, the GLUCOSE [3] was 155.33 mg/dL, the “LACTATE DEHYDROGENASE” value [3] was 234 u/L and the LIPASE [3] was 9 u/L. It also gave a PHOSPHORUS [3] of 14.77 mg/dL, a POTASSIUM [3] of 7.14 MEQ/L and an SODIUM [3] of 148.8 MEQ/L. The “TOTAL BILIRUBIN” value [3] was 0.2 mg/dL, the “TOTAL PROTEIN” value [3] was 6.33 G/DL and the “URIC ACID” value [3] was 2.1 mg/dL. For the same compound, the “ABSOLUTE BASOPHIL” value [4] was 0 CELLS/uL, the “ABSOLUTE EOSINOPHIL” value [4] was 277 CELLS/uL and the “ABSOLUTE LYMPHOCYTE” value [4] was 11716.67 CELLS/uL. The “ABSOLUTE MONOCYTE” value [4] was 225 CELLS/uL, the “ABSOLUTE SEGMENTED NEUTROPHIL” value [4] was 1048 CELLS/uL and the BASOPHIL [4] was 0%. The EOSINOPHIL [4] was 2%, the “ERYTHROCYTE COUNT” value [4] was 5.69 x10E6/uL and the HEMATOCRIT [4] was 36.1%. The HEMOGLOBIN [4] was 13.83 G/DL, the “LEUKOCYTE COUNT” value [4] was 13.27 x10E3/uL and the LYMPHOCYTE [4] was 88.67%. The “MEAN CORPUSCULAR HEMOGLOBIN” value [4] was 24.27 pg, the “MEAN CORPUSCULAR HEMOGLOBIN CONCENTRATION” value [4] was 38.33 G/DL and the “MEAN CORPUSCULAR VOLUME” value [4] was 63.43 fL. The MONOCYTE [4] was 1.67%, the NEUTROPHIL [4] was 7.67% and the “NUCLEATED RED BLOOD CELLS” value [4] was 0 /100WBC. For the same compound, the “PLATELET COUNT” value [4] was 1319.67 x10E3/uL, the “ALANINE AMINOTRANSFERASE” value [4] was 44 u/L and the ALBUMIN [4] was 4.43 G/DL. For the same compound, the “ALKALINE PHOSPHATASE” value [4] was 308.33 u/L, the “ASPARTATE AMINOTRANSFERASE” value [4] was 87.33 u/L and the “BLOOD UREA NITROGEN” value [4] was 20.67 mg/dL. For the same compound, the “CARBON DIOXIDE” value [4] was 24.33 mmol/L, the CHLORIDE [4] was 106.67 MEQ/L and the CHOLESTEROL [4] was 58.67 mg/dL. The “CREATINE PHOSPHOKINASE” value [4] was 307 u/L, the CREATININE [4] was 0.18 mg/dL and the GLUCOSE [4] was 143 mg/dL. For the same compound, the “LACTATE DEHYDROGENASE” value [4] was 514.33 u/L, the LIPASE [4] was 9 u/L and the PHOSPHORUS [4] was 12.6 mg/dL. The POTASSIUM [4] was 6.63 MEQ/L, the SODIUM [4] was 147.1 MEQ/L and the “TOTAL BILIRUBIN” value [4] was 0.17 mg/dL. For the same compound, the “TOTAL PROTEIN” value [4] was 6.27 G/DL and the “URIC ACID” value [4] was 1.5 mg/dL.
